Measurements taken from patent US8053477B2, “Inhibitors of the S100-p53 protein-protein interaction and method of inhibiting cancer employing the same” (University of Maryland, Baltimore, priority 2002, dated 2011).
Residue numbers refer to the chain shown, from its start. Read-outs that look alike come from different tables or passages of the source. Each block holds one molecule with its values, some of them ahead of it. Where no end group is shown, it is not given here.

How the values were obtained:
[1] = test system: C8146A melanoma cells; assay: siRNA transfection of C8146A melanoma cells, Western blots of S100B, p53, p21; assay type: cell-based, human; details: siRNA 2.0, 20 nM; harvested 24 hrs after transfection
Method: The small interfering RNA (siRNA) used consisted of […] (nt) double-stranded RNA, which was synthesized by Xeragon Inc. (Huntsville, Ala.). The sequence of the siRNA, i.e., 5′-ACUACUGCCUGCCACGAGUUC-3 (SEQ ID NO:6), corresponds to the S100β C-terminal end (nt 244-265) plus two dT 3′ overhang.
Different concentrations of siRNA (2.0, 20 nM) were added to the cells along with 2.0 μg of pCMV.3 empty vector (Stratagene, La Jolla, Calif.). The siRNA was transfected in C8146A melanoma cells using FuGENE reagent (Roche Molecular Biochemicals, Indianapolis, Ind.) according to the manufacturer's recommendation. The cells were harvested 24 hrs later and analyzed by Western blots as described above.

[2] = test system: primary malignant melanoma cells (C8146A and HTB 64); assay: Growth of primary malignant melanoma cells (cell counting after 13 days); assay type: cell-based; details: Homo sapiens
Method: (§1) The effect that compounds have on the growth of primary malignant melanoma cells (cell lines: C8146A and HTB 64) and normal melanocytes (Cell Applications Inc. 104-05 from neonatal foreskin) were measured. […] The growth inhibition constants (IC50 values) results from other compounds are listed above. In these studies, typically ˜10,000 cells were distributed evenly across T25 vials. One day later, new media with or without the small molecule (2.5 μM or 25 μM) was added, and the cells were allowed to grow for an additional 13 days. Because some molecules were delivered in DMSO, the effect of DMSO (0.1-0.2% (v/v)) on cell growth was also checked and found to have no effect at these levels (FIG. 13). At this point, the cells were washed in phosphate buffer saline (PBS), harvested by treatment with trypsin, and placed in F10 media with 5.0% (v/v) fetal bovine serum (FBS), 5.0% (v/v) newborn calf serum (NCS), and 2.0% (w/v) penicillin/streptomycin. The cells were counted with a hemocytometer in quadruplicate trials.

[3] = molecular target: T1, S100B (UniProt P04631); assay: Fluorescence binding / competition titrations of small molecules to S100B
T1 sequence (P04631 1-92): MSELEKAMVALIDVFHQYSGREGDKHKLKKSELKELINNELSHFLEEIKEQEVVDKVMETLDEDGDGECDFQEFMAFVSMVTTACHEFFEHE
Method: (§2) Inhibition of binding of S100 proteins to p53 can be assayed by fluorescence binding/competition assays. For example, binding to S100B is monitored using fluorescent peptides such as the F43W p53 peptide ([…] (SEQ ID NO:1)) or the TRTK-12 peptide ([…] (SEQ ID NO:2)) that both contain fluorescent tryptophan residues (see Example 7). In such an assay, the binding of the peptide is monitored by changes in its fluorescence intensity at 350-370 nm in the presence of 10-20 mM calcium chloride (pH 7.4). Displacement of the peptide by the test compound is then monitored by a corresponding decrease in fluorescence intensity and the dissociation constant of the test compound from S100B is calculated using a standard competition equation (KD=Kapp/(1+[floursecent peptide]/KD peptide). The amino acid residues on S100B to which the test compound binds can then monitored by chemical shift perturbations using NMR spectroscopy.
The binding of the small molecules to S100B identified in the CADD search were measured using fluorescence spectroscopy. The compounds identified are as follows:
Compounds that fluorescent (i.e., for Compounds 9, 31 and 33) were measured by a direct binding assay to S100B via fluorescence intensity changes. […] First, changes in tyrosine fluorescence (for Tyr-17 of S100B) were sufficient in some cases to evaluate binding (Rustandi et al (1998), supra; and Szabo et al, FEBS Lett., 94:249-252 (1978)). However, to circumvent problems associated with the low quantum yield of the tyrosine residue, the F43W mutant of S100B was used (FIG. 12A), and then competition studies were done with wild-type S100B (FIG. 12B). In this S100B construct (in F43W S100B), the tryptophan residue is located in the target protein binding site, so the emission of the tryptophan mutant was measured in a straightforward manner at 338 nm as a function of adding compound. This F43W mutant has similar structure, Ca^2+-binding and target binding properties of wild-type S100B. Another approach was to bind a fluorescent probe to wild-type S100B and do competition binding assays with the compound. […] Steady state experiments to determine binding constants were performed on Aminco Bowman Series 2 Luminescence Spectrophotofluorometer with the temperature of the cell (quartz cuvettes) maintained at 25° C. Two internal controls were performed in all titrations. EGTA was added to S100B to chelate the calcium and determine whether the interaction with the drug requires the Ca^2+-dependent conformational change observed for a number of protein targets (Weber et al, supra). In addition, the titrations were performed in the absence of calcium as a control. All compounds with fluorescence emission spectra were also routinely evaluated for photobleaching before proceeding. Buffers were also checked routinely for any contaminants that may fluoresce.

[4] = molecular target: T2, holo-S100B (Homo sapiens, UniProt P04271); assay: NMR mapping of binding interface (HSQC chemical shift perturbation, STD); details: 37° C.
T2 construct: made in house
T2 sequence (P04271 1-92): T1 sequence (P04631 1-92) with E63N, S79A
Method: NMR spectroscopy experiments were carried out to determine what amino acid residues of S100B and the small molecule are interacting (FIG. 14). Resonances of S100B that interact with the small molecules were identified by titrating compounds into holo-S100B and monitoring perturbations in chemical shifts of backbone amide-proton correlations in a ^15N-edited HSQC spectrum (Mori et al, J. Magnetic Resonance, B108:94-98 (1995)). […] An example of mapping the Compound-S100B interface is provided in FIGS. 14A-14C for the interaction between holo-S100B and Compound 4. […] These residues are highlighted red in FIG. 14C for titrations with Compound 4. Resonance assignments of S100B bound to the small molecules were confirmed using a 3D NOESY-HSQC experiment, and the backbone and sidechain chemical shifts of Ca^+2-loaded S100B and S100B bound to p53 peptide as described by Drohat et al (1998), supra; Rustadni et al (2000), supra; and Rustadni et al (1998), supra, were also helpful in the assignment procedure. Regions of the inhibitors that interact with S100B were identified using epitope mapping via saturation transfer difference experiments (STDs) as described by Mayer et al, J. Am. Chem. Soc., 123:6108-6117 (2001). In FIG. 14A, protons of the compound that are proximal to S100B are indicated by arrows. […]

[5] = test system: normal melanocytes (neonatal foreskin); assay: Growth of normal melanocytes (cell counting); assay type: cell-based; details: compared with melanoma cells
Method: as §1

[6] = molecular target: T1, S100B; assay: Fluorescence binding / competition titrations of small molecules to S100B; set-up: rows headed: KD of fluorescent probe peptide for S100B; details: read-out: KD of fluorescent probe peptide for S100B; probes used in competition studies with wild-type S100B
Method: as §2
The binding of the small molecules to S100B identified in the CADD search were measured using fluorescence spectroscopy. […]
Compounds that fluorescent (i.e., for Compounds 9, 31 and 33) were measured by a direct binding assay to S100B via fluorescence intensity changes. […] First, changes in tyrosine fluorescence (for Tyr-17 of S100B) were sufficient in some cases to evaluate binding (Rustandi et al (1998), supra; and Szabo et al, FEBS Lett., 94:249-252 (1978)). […]

[7] = test system: MCF-7; assay: Bleomycin treatment of MCF-7 cells, Western blots of p53, mdm2, p21; assay type: cell-based, human; details: MCF-7, wild type p53; FIG. 6B lane 2
Text: Next, it was explored whether S100B could interact with endogenous p53 and affect the expression of mdm2 and p21. The human breast cancer cell line MCF-7, which has a wild type p53 genotype (Kastan et al, Cell, 71:587-597 (1992)), was transiently transfected with S100B. After S100B transfection, the cells were either treated (or not) with the x-ray mimic agent bleomycin to induce endogenous p53 production.

[8] = 312 h, primary malignant melanoma cells, screened at 2.5 μM or 25 μM, 13 days, read-out: IC50 (growth inhibition constant)
[9] = direct fluorescence, F43W S100B or peptide-probe competition, 25° C., calcium present, read-out: Kd (binding to S100B, fluorescence spectroscopy)

Molecule: 5′-ACUACUGCCUGCCACGAGUUC-3 [siS100B]
increase in p53 levels [1]: 2.3 fold | lowering of S100B levels [1]: 3 fold | up-regulation of p21 protein levels [1]: 2.6 fold

IC50 [2, 8]: 2.5 µM | Kd [3, 9]: 2.7 µM
Molecule: O=C(COc1ccc(C(F)(F)F)c[n+]1[O-])c1cccc([N+](=O)[O-])c1 [Compound 1, 2-[2-(3-nitrophenyl)-2-oxoethoxy]-5-(tri-fluoromethyl)pyridinium-1-olate]

IC50 ([2]; primary malignant melanoma cells, read-out: IC50 (growth inhibition constant), unit inferred): < 2.5 µM
Molecule: N=C(N)NC(=N)Nc1cccc(Cl)c1Cl [Compound 3, {[(2,3,dichloroanilino)(imino)methyl]amino}methanimidamide]

Kd [3, 9]: 2 µM
Molecule: Cc1c(NS(=O)(=O)c2ccc(NC(=O)CCC(=O)O)cc2)c(=O)n(-c2ccccc2)n1C [Compound 4, 4-(4-{[(1,5-dimethyl-3-oxo-2-phenyl-2,3,dihydro-1H-pyrazol-4-yl)amino]sulfonyl}anilino)-4-oxo butanoic acid]
binding site on S100B by NMR [4]: interacts with the C-terminus of S100B (loop 4) and another region of S100B (loop 2)

Kd [3, 9]: 4 µM
Molecule: N=C(N)NC(=N)Nc1ccc(Cl)cc1C(=O)c1ccccc1 [Compound 9, {[(2-benzoyl-4-chloroanilino)(imino)methyl]amino}methanimidamide]

IC50 [2, 8]: ~25 µM | Kd [3, 9]: ~6 µM
Molecule: O=C(O)c1cc(N/N=C/c2ccc(-c3ccc(Cl)c(C(=O)O)c3)o2)ccc1Cl [Compound 31]

IC50 [2, 8]: ~25 µM
Molecule: COc1cc(C2Nc3ccccc3-c3nc(SC)nnc3O2)ccc1OCC(=O)O (stereo not drawn) [Compound 33, 1,2-(3-methylthiotraizine),3,4-phenyl,6-[(2-methoxyphenoxy)Acetic Acid]morpholine]

Kd [3, 9]: ~24 µM
Molecule: CC(C)(C)NC(=O)c1cccc(N2C(=O)c3ccc(C(=O)O)cc3C2=O)c1 [Compound 44, 2-(3-tert-Butylcarbamoyl-phenyl)-1,3-dioxo-2,3-dihydro-1H-isoindole-5-carboxylic acid]

Kd [3, 9]: ~12 µM
Molecule: COc1cccc(N2C(=O)c3ccc(C(=O)Nc4cc(C(=O)O)cc(C(=O)O)c4)cc3C2=O)c1 [Compound 45, 5-{[2-(3-Methoxy-phenyl)-1,3-dioxo-2,3-dihydro-1H-isoindole-5-carbonyl]-amino}-isophthalic acid]

IC50 ([2]; primary malignant melanoma cells (C8146A), read-out: IC50 for inhibition of cell growth): ~0.5 µM | binding site on S100B by NMR [4]: in the p53 binding site | Kd [3, 9]: 1.4 µM | Kd ([3]; read-out: binding constant (KD) between wild-type holo-S100B and pentamidine, competition of pentamidine bound to F43W S100B with wild-type S100B): 0.7 µM
Molecule: N=C(N)c1ccc(OCCCCCOc2ccc(C(=N)N)cc2)cc1 [pentamidine, reference compound]
effect on normal melanocytes, in words [5]: lesser effects on normal melanocytes

Molecule: SHLKSKKGQSTSRHKKLMWKTE [p53 (F385W), reference compound]
Kd [6]: 3 µM

Molecule: bleomycin
basal levels of p53, mdm2 and p21, in words [7]: induced
